The source of these data is article PMC6886798, “Expression of myeloid Src-family kinases is associated with poor prognosis in AML and influences Flt3-ITD kinase inhibitor acquired resistance” (PLoS ONE, 2019).

Assay [1] deals with T1, Fgr wild-type (Homo sapiens, UniProt P09769).
T1 construct: Recombinant near-full-length kinases, consisting of the SH2, SH3 and kinase domains plus the negative regulatory tail; made in house; host or cells: E. coli BL21Star (DE3), co-expressed with Csk and PTP1B
The assay is described as follows: Z'-LYTE in vitro kinase assay. In kind it is biochemical. As to conditions: Tyr-2 peptide 1.0 μM, read-out: ATP Km.
Experimental: (§3) Assays were performed in quadruplicate in 384-well low volume, non-binding, black polystyrene microplates (Corning) according to the manufacturer’s instructions. Briefly, this assay measures phosphorylation of the Tyr2 peptide substrate which is tagged with coumarin and fluorescein on its N- and C-termini, respectively, to form a FRET pair. After the kinase reaction, a development step involves site-specific proteolytic cleavage of the unphosphorylated but not the phosphorylated peptide. […] Kinase reactions were run in 50 mM HEPES, pH 7.5, 10 mM MgCl2, 1 mM EGTA, and 0.01% BRIJ-35 (buffer supplied by the manufacturer). […] Following incubation for 1 h at ambient temperature, reactions were quenched by addition of the development protease, and coumarin and fluorescein fluorescence were measured 1 h later on a Molecular Devices SpectraMax M5 plate reader. […] For experiments with inhibitors, compounds were preincubated with kinase for 30 min prior to initiation of the reaction by the addition of ATP.

The target of assay [2] is T2, Hck T338M (Homo sapiens, UniProt P08631, T333M).
T2 construct: Recombinant near-full-length kinases, consisting of the SH2, SH3 and kinase domains plus the negative regulatory tail; made in house; host or cells: E. coli BL21Star (DE3), co-expressed with Csk and PTP1B
T2 sequence (P08631 78-526 T333M limits assumed): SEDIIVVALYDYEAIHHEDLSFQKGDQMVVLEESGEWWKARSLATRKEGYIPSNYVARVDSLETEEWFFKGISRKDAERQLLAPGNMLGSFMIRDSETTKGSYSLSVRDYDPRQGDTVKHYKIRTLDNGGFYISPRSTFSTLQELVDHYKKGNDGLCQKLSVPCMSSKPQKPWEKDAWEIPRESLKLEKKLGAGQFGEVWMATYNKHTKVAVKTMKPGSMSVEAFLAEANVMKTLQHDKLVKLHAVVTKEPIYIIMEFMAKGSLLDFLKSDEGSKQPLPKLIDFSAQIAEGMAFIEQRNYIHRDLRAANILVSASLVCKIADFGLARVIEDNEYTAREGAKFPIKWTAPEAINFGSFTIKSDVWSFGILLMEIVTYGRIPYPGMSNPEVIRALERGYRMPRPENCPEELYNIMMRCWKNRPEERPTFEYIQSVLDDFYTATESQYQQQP
The assay is described as follows: Z'-LYTE in vitro kinase assay. In kind it is biochemical. The following applies: Hck T338M; Tyr-2 peptide 1.0 μM; read-out: ATP Km.

The target of assay [3] is T3, Lyn T338F (Homo sapiens, UniProt P07948, T319F).
T3 construct: Recombinant near-full-length kinases, consisting of the SH2, SH3 and kinase domains plus the negative regulatory tail; made in house; host or cells: E. coli BL21Star (DE3), co-expressed with Csk and PTP1B
T3 sequence (P07948 63-512 T319F limits assumed): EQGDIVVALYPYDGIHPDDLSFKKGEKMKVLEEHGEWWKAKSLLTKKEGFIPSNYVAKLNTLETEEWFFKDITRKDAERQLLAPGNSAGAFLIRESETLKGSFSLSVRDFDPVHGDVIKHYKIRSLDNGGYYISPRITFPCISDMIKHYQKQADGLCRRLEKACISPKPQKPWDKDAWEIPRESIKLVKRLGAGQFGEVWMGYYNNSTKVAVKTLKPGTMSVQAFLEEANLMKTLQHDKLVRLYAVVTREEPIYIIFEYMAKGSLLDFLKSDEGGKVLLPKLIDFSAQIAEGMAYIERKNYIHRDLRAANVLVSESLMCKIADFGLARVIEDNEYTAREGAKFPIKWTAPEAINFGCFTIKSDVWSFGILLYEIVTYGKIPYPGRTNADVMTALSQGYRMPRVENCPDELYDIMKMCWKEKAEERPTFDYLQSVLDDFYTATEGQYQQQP
Kind of assay: Z'-LYTE in vitro kinase assay. The following applies: Tyr-2 peptide 1.0 μM, read-out: ATP Km. In kind it is biochemical.

Assay [4] concerns the target T4, Fgr T338M (Homo sapiens, UniProt P09769, T334M).
T4 construct: Recombinant near-full-length kinases, consisting of the SH2, SH3 and kinase domains plus the negative regulatory tail; made in house; host or cells: E. coli BL21Star (DE3), co-expressed with Csk and PTP1B
Kind of assay: Z'-LYTE in vitro kinase assay. The following applies: Fgr T338M; Tyr-2 peptide 1.0 μM; read-out: ATP Km. In kind it is biochemical.
Experimental: as §3

In assay [5] the target is T5, Lyn T338M (Homo sapiens, UniProt P07948, T319M).
T5 construct: Recombinant near-full-length kinases, consisting of the SH2, SH3 and kinase domains plus the negative regulatory tail; made in house; host or cells: E. coli BL21Star (DE3), co-expressed with Csk and PTP1B
T5 sequence (P07948 63-512 T319M limits assumed): as the sequence (P07948 63-512 T319F limits assumed) above, with F257M counted along it
The assay is described as follows: Z'-LYTE in vitro kinase assay. Type of assay: biochemical. As to conditions: Tyr-2 peptide 1.0 μM, read-out: ATP Km.

The target of assay [6] is T6, Hck T338L (Homo sapiens, UniProt P08631, T333L).
T6 construct: Recombinant near-full-length kinases, consisting of the SH2, SH3 and kinase domains plus the negative regulatory tail; made in house; host or cells: E. coli BL21Star (DE3), co-expressed with Csk and PTP1B
T6 sequence (P08631 78-526 T333L limits assumed): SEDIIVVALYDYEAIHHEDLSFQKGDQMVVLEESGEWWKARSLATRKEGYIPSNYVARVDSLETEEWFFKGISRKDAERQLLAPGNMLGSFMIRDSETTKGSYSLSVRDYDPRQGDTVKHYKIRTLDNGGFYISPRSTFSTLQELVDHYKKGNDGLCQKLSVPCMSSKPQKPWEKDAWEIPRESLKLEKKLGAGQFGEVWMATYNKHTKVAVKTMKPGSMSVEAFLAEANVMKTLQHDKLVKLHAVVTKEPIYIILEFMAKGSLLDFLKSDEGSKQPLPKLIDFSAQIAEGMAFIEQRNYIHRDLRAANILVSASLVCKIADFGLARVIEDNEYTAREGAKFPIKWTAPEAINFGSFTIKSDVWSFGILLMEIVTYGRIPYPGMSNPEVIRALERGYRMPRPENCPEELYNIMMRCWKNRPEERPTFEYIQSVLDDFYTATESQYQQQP
The assay is described as follows: Z'-LYTE in vitro kinase assay. In kind it is biochemical. As to conditions: Hck T338L; Tyr-2 peptide 1.0 μM; read-out: ATP Km.

Assay [7] deals with T7, Fgr T338L (Homo sapiens, UniProt P09769, T334L).
T7 construct: Recombinant near-full-length kinases, consisting of the SH2, SH3 and kinase domains plus the negative regulatory tail; made in house; host or cells: E. coli BL21Star (DE3), co-expressed with Csk and PTP1B
Kind of assay: Z'-LYTE in vitro kinase assay. The following applies: Tyr-2 peptide 1.0 μM, read-out: ATP Km. Type of assay: biochemical.
Experimental: as §3

The target in assay [8] is T8, Lyn T338L (Homo sapiens, UniProt P07948, T319L).
T8 construct: Recombinant near-full-length kinases, consisting of the SH2, SH3 and kinase domains plus the negative regulatory tail; made in house; host or cells: E. coli BL21Star (DE3), co-expressed with Csk and PTP1B
T8 sequence (P07948 63-512 T319L limits assumed): as the sequence (P07948 63-512 T319F limits assumed) above, with F257L counted along it
The assay is described as follows: Z'-LYTE in vitro kinase assay. In kind it is biochemical. As to conditions: Tyr-2 peptide 1.0 μM, read-out: ATP Km.

Assay [9] has as its target T9, Hck T338F (Homo sapiens, UniProt P08631, T333F).
T9 construct: Recombinant near-full-length kinases, consisting of the SH2, SH3 and kinase domains plus the negative regulatory tail; made in house; host or cells: E. coli BL21Star (DE3), co-expressed with Csk and PTP1B
The assay is described as follows: Z'-LYTE in vitro kinase assay. In kind it is biochemical. As to conditions: Hck T338F; Tyr-2 peptide 1.0 μM; read-out: ATP Km.

Assay [10] deals with T10, Lyn wild-type (Homo sapiens, UniProt P07948).
T10 construct: Recombinant near-full-length kinases, consisting of the SH2, SH3 and kinase domains plus the negative regulatory tail; made in house; host or cells: E. coli BL21Star (DE3), co-expressed with Csk and PTP1B
T10 sequence (P07948 63-512 limits assumed): as the sequence (P07948 63-512 T319F limits assumed) above, with F257T counted along it
Kind of assay: Z'-LYTE in vitro kinase assay. Type of assay: biochemical. The following applies: Tyr-2 peptide 1.0 μM, read-out: ATP Km.

Assay [11] deals with T11, Hck wild-type (Homo sapiens, UniProt P08631).
T11 construct: Recombinant near-full-length kinases, consisting of the SH2, SH3 and kinase domains plus the negative regulatory tail; made in house; host or cells: E. coli BL21Star (DE3), co-expressed with Csk and PTP1B
T11 sequence (P08631 78-526 limits assumed): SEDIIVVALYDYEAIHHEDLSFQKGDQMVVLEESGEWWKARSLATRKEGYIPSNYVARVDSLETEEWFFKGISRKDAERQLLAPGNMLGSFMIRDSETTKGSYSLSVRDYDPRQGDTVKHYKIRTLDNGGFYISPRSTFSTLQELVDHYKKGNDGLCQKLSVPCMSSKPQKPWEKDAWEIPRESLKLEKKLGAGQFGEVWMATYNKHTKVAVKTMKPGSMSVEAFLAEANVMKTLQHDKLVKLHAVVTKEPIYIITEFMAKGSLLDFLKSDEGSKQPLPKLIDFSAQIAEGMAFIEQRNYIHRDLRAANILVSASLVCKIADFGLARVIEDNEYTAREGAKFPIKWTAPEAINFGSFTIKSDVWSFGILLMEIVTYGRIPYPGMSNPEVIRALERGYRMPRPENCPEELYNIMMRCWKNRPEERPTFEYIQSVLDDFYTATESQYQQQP
The assay is described as follows: Z'-LYTE in vitro kinase assay. As to conditions: Tyr-2 peptide 1.0 μM, read-out: ATP Km. In kind it is biochemical.

The target of assay [12] is T12, Fgr T338F (Homo sapiens, UniProt P09769, T334F).
T12 construct: Recombinant near-full-length kinases, consisting of the SH2, SH3 and kinase domains plus the negative regulatory tail; made in house; host or cells: E. coli BL21Star (DE3), co-expressed with Csk and PTP1B
Kind of assay: Z'-LYTE in vitro kinase assay. In kind it is biochemical. As to conditions: Fgr T338F; Tyr-2 peptide 1.0 μM; read-out: ATP Km.
Experimental: as §3

For assay [13], the system named is MV4-11 R2 (A-419259-resistant population). Kind of assay: CellTiter-Blue cell viability. In kind it is cell-based, human. The following applies: Homo sapiens, S11 Fig, read-out: PRT062607 IC50, nM (growth suppression). The protocol:
(§1) Cell viability was assessed using the CellTiter-Blue reagent according to the manufacturer’s instructions (Promega). Fluorescence intensity, which correlates directly with viable cell number, was measured using a SpectraMax M5 microplate reader. Each experiment included three technical replicates per condition, and each experiment was repeated at least three times. […] Viability of each cell population was measured three times per week using the CellTiter-Blue assay.

Assay [14] concerns MOLM14 R2 (A-419259-resistant population). Kind of assay: CellTiter-Blue cell viability. In kind it is cell-based, human. The following applies: Homo sapiens, MOLM-14, S11 Fig, read-out: PRT062607 IC50, nM (growth suppression). How it is done: as §1
Assay [15] deals with MOLM14 R3 (A-419259-resistant population). Kind of assay: CellTiter-Blue cell viability. In kind it is cell-based, human. The following applies: Homo sapiens, MOLM-14, S11 Fig, read-out: PRT062607 IC50, nM (growth suppression). The protocol:
as §1

For assay [16], the system named is MV4-11 R3 (A-419259-resistant population). Kind of assay: CellTiter-Blue cell viability. Type of assay: cell-based, human. The following applies: Homo sapiens, S11 Fig, read-out: PRT062607 IC50, nM (growth suppression). How it is done: as §1
In general terms: The colour change of resazurin is a common sign of viable cells or microbes.

Assay [17] has as its system MOLM14 R1 (A-419259-resistant population). The assay is described as follows: CellTiter-Blue cell viability. In kind it is cell-based, human. As to conditions: Homo sapiens, MOLM-14, S11 Fig, read-out: PRT062607 IC50, nM (growth suppression). The protocol: as §1
Assay [18] concerns MOLM13 R3 (A-419259-resistant population). The assay is described as follows: CellTiter-Blue cell viability. Type of assay: cell-based, human. As to conditions: Homo sapiens, MOLM-13, S11 Fig, read-out: PRT062607 IC50, nM (growth suppression). How it is done:
as §1

Assay [19] has as its system MV4-11, MOLM13 and MOLM14 parent and A-419259-resistant cell populations. Kind of assay: CellTiter-Blue cell viability, parent and resistant AML populations as a group. In kind it is cell-based, human. The protocol:
as §1

Assay [20] deals with MV4-11 cells (parent). The assay is described as follows: CellTiter-Blue cell viability. The following applies: Homo sapiens; S11 Fig; MV4-11 Parent; read-out: PRT062607 IC50, nM (growth suppression). Type of assay: cell-based, human. How it is done:
(§2) Gibco/ThermoFisher). Parental TF-1 cells also require recombinant human GM-CSF (1 ng/mL; ThermoFisher). MOLM13 and MOLM14 cells were obtained from Leibniz Institute Deutsche Sammlung von Mikroorganismen (DSMZ) and grown in RPMI 1640 medium containing 20% FBS and Antibiotic-Antimycotic. […] Cell viability was assessed using the CellTiter-Blue reagent according to the manufacturer’s instructions (Promega). Fluorescence intensity, which correlates directly with viable cell number, was measured using a SpectraMax M5 microplate reader. Each experiment included three technical replicates per condition, and each experiment was repeated at least three times.

Assay [21] has as its system MOLM14 cells (parent). The assay is described as follows: CellTiter-Blue cell viability. The following applies: Homo sapiens, MOLM-14, S11 Fig, read-out: PRT062607 IC50, nM (growth suppression). Type of assay: cell-based, human. The protocol:
as §2

Assay [22] deals with MOLM13 cells (parent). The assay is described as follows: CellTiter-Blue cell viability. In kind it is cell-based, human. As to conditions: Homo sapiens, MOLM-13, S11 Fig, read-out: PRT062607 IC50, nM (growth suppression). The protocol: as §2
For assay [23], the system named is myeloid Src-family kinases. Further details: method as in S. Hellwig and T. Smithgall, unpublished data. The following applies: ref S. Hellwig and T. Smithgall, unpublished data; cited from earlier work.

A word on the Km: it is the substrate concentration at which the rate is half of its maximum. In general, IC50 refers to the concentration that inhibits the measured activity by half.

T9 sequence (P08631 78-526 T333F limits assumed): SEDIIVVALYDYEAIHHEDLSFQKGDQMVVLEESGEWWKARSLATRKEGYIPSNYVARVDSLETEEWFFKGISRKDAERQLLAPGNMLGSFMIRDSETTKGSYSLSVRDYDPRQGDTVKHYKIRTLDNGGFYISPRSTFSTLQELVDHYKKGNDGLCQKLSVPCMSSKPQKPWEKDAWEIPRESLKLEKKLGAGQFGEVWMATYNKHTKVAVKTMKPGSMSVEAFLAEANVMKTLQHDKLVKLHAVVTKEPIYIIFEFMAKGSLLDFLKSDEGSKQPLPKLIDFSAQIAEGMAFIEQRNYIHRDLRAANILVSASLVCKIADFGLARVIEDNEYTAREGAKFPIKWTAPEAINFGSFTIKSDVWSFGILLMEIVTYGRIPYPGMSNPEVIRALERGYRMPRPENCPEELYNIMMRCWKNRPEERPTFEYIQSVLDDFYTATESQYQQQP

For the compound `Nc1ncnc2c1ncn2[C@@H]1O[C@H](COP(=O)(O)OP(=O)(O)OP(=O)(O)O)[C@@H](O)[C@H]1O` [ATP], the Km in [1] was 17.9 µM; in [2] it was 6.9 µM; in assay [3] it was 87.3 µM; in assay [4], 5.3 µM; in assay [5], 7 µM; in assay [6], 17.2 µM. Also, the Km worked out at 10 µM in [7]; 24 µM in assay [8]; 42 µM in [9]; 32.8 µM in [10]; 26 µM in assay [11]; 95.7 µM in [12].
Consider `NC(=O)c1cnc(N[C@@H]2CCCC[C@@H]2N)nc1Nc1cccc(-n2nccn2)c1` [PRT062607], for which the IC50 in assay [13] came out at 1720 ± 93.5 nM; in assay [14], 1640 ± 154 nM; in assay [15], 1200 ± 128 nM; in [16], 795 ± 128 nM; in assay [17], 2030 ± 1090 nM; in assay [18], 1990 ± 377 nM. Further, the IC50 in assay [19] (Homo sapiens, all three parent AML cell lines and their resistant counterparts, read-out: IC50 values for growth suppression) is 500 to 2000 nM; in assay [20], 453 ± 90.7 nM; in [21], 1330 ± 183 nM; in assay [22], 1380 ± 124 nM. Besides, the “effect of added Syk inhibitor on sensitivity to A-419259” value in assay [19] (fixed concentrations 50, 100 and 200 μM, 72 h, exception MV4-11 R2) is on record as “did not affect”.
`CC(C)(C)c1cc(NC(=O)Nc2ccc(-c3cn4c(n3)sc3cc(OCCN5CCOCC5)ccc34)cc2)no1` [quizartinib]: in assay [23], the “inhibition of myeloid Src-family kinases” value is “does not inhibit”.
